According to PubChem BioAssay AID743319 (Broad Institute, 2014):
Active and inactive are the calls of the source.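 Rule for the calls: active = fitted curve reaches 200% activation at or below the highest valid dose tested for that compound; inconclusive = flat fit between 30 and 70% activation, or unreliable fit; inactive = the rest.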

Each molecule was assayed against Endoplasmic reticulum aminopeptidase 2 (Homo sapiens) (UniProt Q6P179) (assay: enhanced ERAP2 Arg-AMC hydrolysis – biochemical, fluorescence plate reader, cherry-picked samples, selectivity assay for selective ERAP1 modulator project, dose response (AID 743319)). Settings: recombinant ERAP2, Arg-AMC cleavage fluorescence, 1 h; at 11 µM (top of the series).
Chain of Endoplasmic reticulum aminopeptidase 2 (Homo sapiens) (Q6P179 whole entry, looked up): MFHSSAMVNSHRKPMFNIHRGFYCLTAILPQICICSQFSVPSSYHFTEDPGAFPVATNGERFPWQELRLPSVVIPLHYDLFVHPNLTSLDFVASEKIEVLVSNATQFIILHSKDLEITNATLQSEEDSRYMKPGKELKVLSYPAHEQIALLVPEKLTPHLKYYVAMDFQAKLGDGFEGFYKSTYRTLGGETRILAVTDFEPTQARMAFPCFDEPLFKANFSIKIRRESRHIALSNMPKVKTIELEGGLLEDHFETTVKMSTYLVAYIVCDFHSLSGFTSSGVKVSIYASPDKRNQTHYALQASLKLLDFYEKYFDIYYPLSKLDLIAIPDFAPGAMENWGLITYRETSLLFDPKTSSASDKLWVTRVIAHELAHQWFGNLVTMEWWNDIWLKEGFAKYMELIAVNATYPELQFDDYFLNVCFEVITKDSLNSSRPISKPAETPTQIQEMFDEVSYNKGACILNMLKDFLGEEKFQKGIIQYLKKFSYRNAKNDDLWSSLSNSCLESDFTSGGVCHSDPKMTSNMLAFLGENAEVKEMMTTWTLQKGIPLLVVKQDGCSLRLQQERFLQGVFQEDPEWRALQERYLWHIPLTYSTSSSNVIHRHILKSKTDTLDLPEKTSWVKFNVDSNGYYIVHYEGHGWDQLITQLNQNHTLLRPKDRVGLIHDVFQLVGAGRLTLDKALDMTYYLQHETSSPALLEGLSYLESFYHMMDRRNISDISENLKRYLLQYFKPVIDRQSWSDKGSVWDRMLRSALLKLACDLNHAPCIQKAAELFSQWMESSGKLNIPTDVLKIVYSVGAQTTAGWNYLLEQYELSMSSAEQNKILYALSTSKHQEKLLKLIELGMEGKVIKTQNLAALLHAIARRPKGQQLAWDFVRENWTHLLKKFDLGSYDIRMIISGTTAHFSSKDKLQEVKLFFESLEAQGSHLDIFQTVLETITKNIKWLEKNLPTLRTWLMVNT

activation, inactive:
Cc1cc(=O)oc2c(CN3CCN(C)CC3)c(O)c(Cl)cc12 12%
Cc1noc(C)c1NC(=O)N(C)C[C@@H]1Oc2c(NC(=O)Nc3ccccc3)cccc2C(=O)N([C@H](C)CO)C[C@@H]1C 10.6%
C[C@@H]1CCCCO[C@@H](CN(C)Cc2ccc3c(c2)OCO3)[C@@H](C)CN([C@H](C)CO)C(=O)c2cc(NS(=O)(=O)c3cccs3)ccc2O1 1.03%
NC(=NCCc1c[nH]c2ccccc12)NS(=O)(=O)c1cc(F)ccc1F 9.24%
C[C@@H]1CCCCO[C@@H](CN(C)C)[C@@H](C)CN([C@@H](C)CO)C(=O)c2cc(NS(=O)(=O)c3ccc(Cl)cc3)ccc2O1 2.17%
COc1ccc(CN(C)C[C@@H]2OCCCC[C@@H](C)Oc3ccc(NS(=O)(=O)c4cccs4)cc3C(=O)N([C@H](C)CO)C[C@H]2C)cc1 1.04%
C[C@H](CO)N1C[C@H](C)[C@H](CN(C)Cc2ccc(C(=O)O)cc2)Oc2c(NC(=O)Nc3ccccc3)cccc2C1=O 22.8%
C[C@@H]1CCCCO[C@H](CN(C)Cc2ccc(C(=O)O)cc2)[C@H](C)CN([C@@H](C)CO)C(=O)c2cc(NC(=O)Nc3ccc(C(F)(F)F)cc3)ccc2O1 11.3%
O=C(O)c1cccc(NC(=O)c2ccccc2NC(=O)c2cccc([N+](=O)[O-])c2)c1 15.7%
CCCN(C)C[C@@H]1OCCCC[C@@H](C)Oc2ccc(NS(=O)(=O)c3ccc(F)cc3)cc2C(=O)N([C@H](C)CO)C[C@@H]1C 10.6%
CCCN(C)C[C@@H]1OCCCC[C@@H](C)Oc2ccc(NS(=O)(=O)c3cccs3)cc2C(=O)N([C@H](C)CO)C[C@@H]1C 11%
C[C@H](CO)N1C[C@H](C)[C@H](CN(C)Cc2ccncc2)Oc2c(NC(=O)Nc3ccc(C(F)(F)F)cc3)cccc2C1=O 4.68%
C[C@@H]1CCCCO[C@@H](CN(C)CC2CC2)[C@@H](C)CN([C@H](C)CO)C(=O)c2cc(NS(=O)(=O)c3ccc(Cl)cc3)ccc2O1 18.4%
O=C(O)c1ccccc1NS(=O)(=O)c1cccc(-n2sc3ccccc3c2=O)c1 3.47%
COc1ccc(CN(C)C[C@H]2OCCCC[C@@H](C)Oc3ccc(NS(=O)(=O)c4cccs4)cc3C(=O)N([C@@H](C)CO)C[C@@H]2C)cc1 10.1%
C[C@H](CO)N1C[C@H](C)[C@H](CN(C)CC2CCCCC2)Oc2c(NC(=O)Nc3ccc(C(F)(F)F)cc3)cccc2C1=O 11.4%
O=C(C[C@H]1CC[C@@H]2[C@H](COC[C@@H](O)CN2C(=O)Nc2cccc(Cl)c2)O1)N1CCCCC1 32.4%
O=C(Nc1ccc(C(F)(F)F)cc1)N1[C@@H]2CNC[C@H]1C2c1ccc(-c2ccncc2)cc1 (stereo partly specified) 1.51%
COc1ccc(CN(C)C[C@@H]2OCCCC[C@@H](C)Oc3ccc(NS(=O)(=O)c4cccs4)cc3C(=O)N([C@H](C)CO)C[C@@H]2C)cc1 10.9%
CCCN(C)C[C@@H]1OCCCC[C@@H](C)Oc2ccc(NS(=O)(=O)c3ccccc3)cc2C(=O)N([C@H](C)CO)C[C@@H]1C 16%
COc1ccc(CN(C)C[C@@H]2OCCCC[C@@H](C)Oc3ccc(NS(=O)(=O)c4c(C)noc4C)cc3C(=O)N([C@@H](C)CO)C[C@@H]2C)cc1 -1%
C[C@H]1CN([C@@H](C)CO)C(=O)c2cccc(NC(=O)Nc3ccc(C(F)(F)F)cc3)c2O[C@@H]1CN(C)C 2.76%
C[C@H]1CN([C@@H](C)CO)C(=O)c2cccc(NC(=O)Nc3ccc4c(c3)OCO4)c2O[C@@H]1CN(C)CC1CC1 12.8%
C[C@@H]1CN([C@H](C)CO)C(=O)c2cc(NC(=O)Nc3ccc(F)cc3)ccc2O[C@H]1CN(C)Cc1ccc(C(=O)O)cc1 1.24%
C[C@H]1CN([C@@H](C)CO)C(=O)c2cccc(NC(=O)Nc3ccc(C(F)(F)F)cc3)c2O[C@@H]1CN(C)CC1CC1 -16.1%
COc1ccc(CN(C)C[C@@H]2OCCCC[C@H](C)Oc3ccc(NS(=O)(=O)c4cccs4)cc3C(=O)N([C@H](C)CO)C[C@@H]2C)cc1 10.2%
Cc1ccccc1-c1ccc2c(c1)O[C@@H](CN(C)Cc1ccc(C(=O)O)cc1)[C@@H](C)CN([C@@H](C)CO)S2(=O)=O 0.523%
CCC(=O)N(C)C[C@@H]1Oc2ncc(C#Cc3ccncc3)cc2C(=O)N([C@@H](C)CO)C[C@@H]1C -17.3%
C[C@@H]1CCCCO[C@@H](CN(C)Cc2ccccc2)[C@H](C)CN([C@H](C)CO)C(=O)c2cc(NS(=O)(=O)c3cccs3)ccc2O1 6.39%
COc1ccc(C(=O)O)cc1S(=O)(=O)Nc1cc(C(F)(F)F)ccc1N1CCCCC1 8.35%
O=C(CSc1cn[nH]n1)Nc1cccc(C(=O)O)c1 13.8%
COc1ccc(CN(C)C[C@H]2OCCCC[C@@H](C)Oc3ccc(NS(=O)(=O)c4cccs4)cc3C(=O)N([C@@H](C)CO)C[C@H]2C)cc1 2.79%
COc1ccc(CN(C)C[C@@H]2OCCCC[C@H](C)Oc3ccc(NS(=O)(=O)c4cccs4)cc3C(=O)N([C@@H](C)CO)C[C@@H]2C)cc1 20.4%
CCCN(C)C[C@@H]1OCCCC[C@H](C)Oc2ccc(NC(=O)Nc3ccc(F)cc3)cc2C(=O)N([C@H](C)CO)C[C@@H]1C 10.8%
COc1ccc(CN(C)C[C@H]2OCCCC[C@@H](C)Oc3ccc(NS(=O)(=O)c4cccs4)cc3C(=O)N([C@H](C)CO)C[C@H]2C)cc1 3.67%
Cc1noc(C)c1NC(=O)Nc1ccc2c(c1)C(=O)N([C@H](C)CO)C[C@@H](C)[C@@H](CN(C)Cc1ccc(C(F)(F)F)cc1)OCCCC[C@@H](C)O2 -2.75%
